# Source: US20100305174A1, “Novel Heterocyclic Derivatives” (ORCHID RESEARCH LABORATORIES LIMITED, priority 2005, published 2010)
# Read-outs that look alike come from different tables or passages of the source.
# How the values were obtained:
# [1] = system: streptozotocin induced diabetic mice; experiment: Antidiabetic activity in streptozotocin induced diabetic mice; type: in vivo, Swiss albino mice; design: key to % Reduction Cholesterol / % Reduction Triglycerides / % Reduction Glucose: NR=No Reduction; settings: 50 mg/kg oral, 7 days, plasma, compared to control group; for inhibition in vivo at 50 mg/kg: Mus musculus, 168 h
# Procedure: Swiss albino mice of either sex were used in the study at the age of 10 weeks. Diabetes was induced in animals by injecting streptozotocin by i.p. route at a dose of 200 mg/kg body weight. 48 hours after streptozotocin administration, the animals were kept for fasting for 6 hours and blood was collected and plasma separated and glucose was estimated. Animals showing greater than 200 mg/dl glucose levels were considered as diabetic and these animals were randomly distributed into various groups. The compounds listed in the table 3 were administered at a dose of 50 mg/kg body weight by oral route for 7 days. Later animals were fasted for 6 hours and blood was collected and plasma separated. Biochemical estimations like glucose, cholesterol and triglycerides were carried out using the plasma. The effect of compounds mentioned in the table was expressed in terms of percentage reduction in biochemical values as compared to control group.
# DPP IV = biological target: T1, DPP IV (Homo sapiens, UniProt P27487); experiment: DPP IV assay (human plasma as source, H-gly-pro AMC substrate); type: biochemical; settings: compared to vehicle control
# T1 construct: using human plasma as a source of DPP IV; from tissue; host or cells: human plasma
# T1 sequence (P27487 39-766 limits assumed): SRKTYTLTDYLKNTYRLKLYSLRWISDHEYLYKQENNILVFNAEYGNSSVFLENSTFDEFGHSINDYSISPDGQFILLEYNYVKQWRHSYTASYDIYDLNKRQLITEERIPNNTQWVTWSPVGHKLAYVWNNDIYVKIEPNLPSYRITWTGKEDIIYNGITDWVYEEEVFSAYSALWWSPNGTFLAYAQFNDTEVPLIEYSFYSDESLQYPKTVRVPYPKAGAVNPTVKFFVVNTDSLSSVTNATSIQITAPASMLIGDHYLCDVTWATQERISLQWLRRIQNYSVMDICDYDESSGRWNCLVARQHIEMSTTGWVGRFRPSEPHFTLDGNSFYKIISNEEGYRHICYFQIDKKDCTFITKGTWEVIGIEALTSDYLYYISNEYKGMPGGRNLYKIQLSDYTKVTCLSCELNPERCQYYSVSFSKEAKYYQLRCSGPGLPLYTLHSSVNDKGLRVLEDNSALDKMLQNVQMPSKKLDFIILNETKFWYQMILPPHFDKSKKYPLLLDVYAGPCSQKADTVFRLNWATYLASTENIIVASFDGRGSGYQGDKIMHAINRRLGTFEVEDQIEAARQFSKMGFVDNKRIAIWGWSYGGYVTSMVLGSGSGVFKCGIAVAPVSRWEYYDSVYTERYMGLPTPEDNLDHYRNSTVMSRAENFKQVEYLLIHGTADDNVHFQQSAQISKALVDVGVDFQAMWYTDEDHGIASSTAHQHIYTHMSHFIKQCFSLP
# Procedure: DPP IV assay is carried by using human plasma as a source of DPP IV. The compounds were incubated at a concentration of 1 and 10 μM in assay buffer containing DPP IV enzyme. The compounds were incubated for 1 hr and then the substrate H-gly-pro AMC was added and further incubated for 20 min and then the reaction was stopped on addition of 25% glacial acetic acid. The plates were read in a spectrofluorimeter to get RFU on setting excitation wavelength of 360 nm and emission wavelength of 460 nm. Percentage inhibition is calculated as compared to vehicle control.
# IL-1β = IL-1β inhibition in LPS-challenged human PBMC; type: cell-based; settings: for inhibition at 1 µM / inhibition at 10 µM: Homo sapiens, PBMC, LPS 100 ng/mL, 20 hours, read-out: % Inhibition IL1beta
# Procedure: (§1) Human PBMC cells were cultured and incubated with compounds listed in table-4 at 1 and 10 μM concentrations. Cells (1×10^6/mL) were challenged with lipopolysaccharides (LPS) at a concentration of (100 ng/mL) for 20 hours. Cell supernatant was analyzed for the presence of TNF-α, IL-1β and IL-6 cytokines by antibody directed enzyme-linked immunoassay.
# TNF-α = TNF-α inhibition in LPS-challenged human PBMC; type: cell-based; settings: for inhibition at 1 µM / inhibition at 10 µM: Homo sapiens, PBMC, LPS 100 ng/mL, 20 hours, read-out: % Inhibition TNF alpha
# Procedure: as §1
# IL-6 = IL-6 inhibition in LPS-challenged human PBMC; type: cell-based; settings: for inhibition at 1 µM / inhibition at 10 µM: Homo sapiens, PBMC, LPS 100 ng/mL, 20 hours
# Procedure: as §1
# [2] = read-out: % Reduction Triglycerides
# [3] = at tested concentrations, statement in words
smiles,measurement,setting,value
"CN1C(=O)OCC1Cc1ccc(Oc2ccc(/C=C3/SC(=S)NC3=O)cc2Cl)cc1 (stereo not drawn) [Example 40, 4-(4-{2-chloro-4-[(4-oxo-2-thioxo-1,3-thiazolidin-5-ylidene)methyl]phenoxy}benzyl)-3-methyl-1,3-oxazolidin-2-one]",% Reduction Cholesterol,[1],NR
same,inhibition in vivo at 50 mg/kg,[1]; read-out: % Reduction Glucose,34.2%
same,inhibition in vivo at 50 mg/kg,[1]; [2],17.8%
"CN1C(=O)OCC1Cc1ccc(Oc2ccc(/C=C3/SC(=S)N(CC(=O)O)C3=O)cc2Cl)cc1 (stereo not drawn) [Example 41, [4-oxo-5-(3-chloro-4-{4-[(3-methyl-2-oxo-1,3-oxazolidin-4-yl)methyl]phenoxy}benzylidene)-2-thioxo-1,3-thiazolidin-3-yl]acetic acid]",% Reduction Cholesterol,[1],NR
same,% Reduction Triglycerides,[1],NR
same,inhibition in vivo at 50 mg/kg,[1]; read-out: % Reduction Glucose,66.5%
CN1C(=O)OCC1Cc1ccc(Oc2ccc(/C=C3/SC(=S)NC3=O)cc2C(F)(F)F)cc1 (stereo not drawn) [Example 55],inhibition at 1 µM,DPP IV,1.99%
same,inhibition at 10 µM,DPP IV,9.92%
CCN1C(=O)OCC1Cc1ccc(Oc2ccc(/C=C3/SC(=S)NC3=O)cc2C(F)(F)F)cc1 (stereo not drawn) [Example 59],inhibition at 1 µM,DPP IV,-1.26%
same,inhibition at 10 µM,DPP IV,12.4%
"CCN1C(=O)OCC1Cc1ccc(Oc2ccc(CC3SC(=O)NC3=O)cc2)cc1 (stereo not drawn) [Example 62, 5-(4-{4-[(3-ethyl-2-oxo-1,3-oxazolidin-4-yl)methyl]phenoxy}benzyl)-1,3-thiazolidine-2,4-dione]",% Reduction Cholesterol,[1],NR
same,inhibition in vivo at 50 mg/kg,[1]; read-out: % Reduction Glucose,36.2%
same,inhibition in vivo at 50 mg/kg,[1]; [2],24.7%
CN1C(=O)OCC1Cc1ccc(Oc2ccc(CC3C(=O)Nc4ccccc43)cc2)cc1 (stereo not drawn) [Example 64],inhibition at 1 µM,IL-1β,8.77%
same,inhibition at 10 µM,IL-1β,25.9%
same,inhibition at 1 µM,TNF-α,9.43%
same,inhibition at 10 µM,TNF-α,15.6%
CCN1C(=O)OCC1Cc1ccc(Oc2ccc(CC3C(=O)Nc4ccccc43)cc2C(F)(F)F)cc1 (stereo not drawn) [Example 65],inhibition at 1 µM,TNF-α,4.6%
same,inhibition at 10 µM,TNF-α,1.67%
CCN1C(=O)OCC1Cc1ccc(Oc2ccc(CC3C(=O)Nc4ccccc43)cc2F)cc1 (stereo not drawn) [Example 66],inhibition at 1 µM,IL-6,3.58%
COc1cc(CC2C(=O)Nc3ccccc32)ccc1Oc1ccc(CC2COC(=O)N2C)cc1 (stereo not drawn) [Example 67],inhibition at 1 µM,IL-1β,12.1%
same,inhibition at 10 µM,IL-1β,20.9%
same,inhibition at 10 µM,IL-6,2.12%
same,inhibition at 1 µM,TNF-α,20.9%
same,inhibition at 10 µM,TNF-α,34%
CCN1C(=O)OCC1Cc1ccc(Oc2ccc(CC3C(=O)Nc4ccccc43)cc2OC)cc1 (stereo not drawn) [Example 69],inhibition at 1 µM,IL-1β,33.3%
same,inhibition at 10 µM,IL-1β,39.7%
same,inhibition of IL-1β production,IL-1β; [3],can inhibit the production
same,inhibition at 1 µM,IL-6,2.98%
same,inhibition at 10 µM,IL-6,12.4%
same,inhibition of IL-6 production,IL-6; [3],can inhibit the production
same,inhibition at 1 µM,TNF-α,35.2%
same,inhibition at 10 µM,TNF-α,50.6%
same,inhibition of TNF-α production,TNF-α; [3],can inhibit the production
"CN1C(=O)OCC1Cc1ccc(Oc2ccc(CC3SC(=O)NC3=O)cc2C(F)(F)F)cc1 (stereo not drawn) [Example 71, 4-{4-[(3-methyl-2-oxo-1,3-oxazolidin-4-yl)methyl]phenoxy)-3-(trifluoromethylbenzyl]-1,3-thiazolidine-2,4-dione]",% Reduction Cholesterol,[1],NR
same,% Reduction Triglycerides,[1],NR
same,inhibition in vivo at 50 mg/kg,[1]; read-out: % Reduction Glucose,49.9%
CN1C(=O)OCC1Cc1ccc(Oc2ccc(CC3C(=O)Nc4ccccc43)cc2C(F)(F)F)cc1 (stereo not drawn) [Example 75],inhibition at 1 µM,DPP IV,2.44%
same,inhibition at 10 µM,DPP IV,7.64%
CN1C(=O)OCC1Cc1ccc(Oc2ccc(CC3SC(=S)N(CC(=O)O)C3=O)cc2C(F)(F)F)cc1 (stereo not drawn) [Example 86],% Reduction Cholesterol,[1],NR
same,inhibition in vivo at 50 mg/kg,[1]; read-out: % Reduction Glucose,48.8%
same,inhibition in vivo at 50 mg/kg,[1]; [2],15.5%
